Inhibition data for 3 compounds are collected here from ChEMBL document CHEMBL5696442, “Discovery of type II inhibitors of TGFβ-activated kinase 1 (TAK1) and mitogen-activated protein kinase kinase kinase kinase 2 (MAP4K2)” (J Med Chem, 2015).

As usually defined, the inhibition is the drop in the measured response relative to a control, in per cent.

Each structure is given as a SMILES string.

In assay [1] the target is T1, Serine/threonine-protein kinase D1 (Homo sapiens) (UniProt Q15139).
T1 sequence (whole entry): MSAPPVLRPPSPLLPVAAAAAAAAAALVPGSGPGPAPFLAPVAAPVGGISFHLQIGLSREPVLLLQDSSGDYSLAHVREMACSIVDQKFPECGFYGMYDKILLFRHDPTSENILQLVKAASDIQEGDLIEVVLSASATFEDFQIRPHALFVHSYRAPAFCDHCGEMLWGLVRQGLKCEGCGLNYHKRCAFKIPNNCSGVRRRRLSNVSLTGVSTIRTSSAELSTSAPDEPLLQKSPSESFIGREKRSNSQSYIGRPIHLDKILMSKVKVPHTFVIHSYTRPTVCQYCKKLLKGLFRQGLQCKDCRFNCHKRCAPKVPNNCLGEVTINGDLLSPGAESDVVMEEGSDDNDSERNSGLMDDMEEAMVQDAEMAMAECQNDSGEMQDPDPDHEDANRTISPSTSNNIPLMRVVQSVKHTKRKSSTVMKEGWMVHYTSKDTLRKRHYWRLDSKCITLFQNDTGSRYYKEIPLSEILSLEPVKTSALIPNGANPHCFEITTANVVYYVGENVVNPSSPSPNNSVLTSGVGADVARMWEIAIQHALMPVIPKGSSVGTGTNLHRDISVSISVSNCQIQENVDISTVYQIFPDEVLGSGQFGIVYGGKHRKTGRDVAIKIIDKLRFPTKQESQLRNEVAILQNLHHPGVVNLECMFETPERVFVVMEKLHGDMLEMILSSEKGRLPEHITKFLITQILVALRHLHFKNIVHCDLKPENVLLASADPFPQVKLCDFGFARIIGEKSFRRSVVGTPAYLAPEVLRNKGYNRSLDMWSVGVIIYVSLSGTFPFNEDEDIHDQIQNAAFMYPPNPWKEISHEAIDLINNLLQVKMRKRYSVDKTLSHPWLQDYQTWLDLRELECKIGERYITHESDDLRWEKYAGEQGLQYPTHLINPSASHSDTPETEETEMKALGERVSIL
Nature of the assay: Inhibition of PRKD1 (unknown origin) at 1 uM by Ambit Kinomescan binding assay relative to control.

For assay [2], the target named is Serine/threonine-protein kinase Nek6 (Homo sapiens) (UniProt Q9HC98). The assay is described as follows: Inhibition of NEK6 ACT labeling site in human Huh-7 cells at 1 uM by KiNativ Profiling analysis relative to control. The assay is classed as cell-based.
Chain of Serine/threonine-protein kinase Nek6 (Homo sapiens) (Q9HC98 whole entry): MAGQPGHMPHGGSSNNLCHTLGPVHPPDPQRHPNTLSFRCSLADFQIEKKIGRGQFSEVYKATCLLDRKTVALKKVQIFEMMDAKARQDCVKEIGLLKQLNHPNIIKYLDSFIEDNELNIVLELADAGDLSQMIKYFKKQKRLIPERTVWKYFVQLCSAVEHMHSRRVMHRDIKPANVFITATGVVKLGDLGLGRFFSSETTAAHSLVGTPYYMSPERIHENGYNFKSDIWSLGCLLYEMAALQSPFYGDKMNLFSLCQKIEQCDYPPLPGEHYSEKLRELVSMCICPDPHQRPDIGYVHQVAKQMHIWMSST
Assay [3] has the same target. The assay is described as follows: Inhibition of NEK6 ACT labeling site in human Huh-7 cells at 10 uM by KiNativ Profiling analysis relative to control. The assay is classed as cell-based.
In assay [4] the target is T2, Mitogen-activated protein kinase kinase kinase kinase 2 (Homo sapiens) (UniProt Q12851).
T2 sequence (whole entry): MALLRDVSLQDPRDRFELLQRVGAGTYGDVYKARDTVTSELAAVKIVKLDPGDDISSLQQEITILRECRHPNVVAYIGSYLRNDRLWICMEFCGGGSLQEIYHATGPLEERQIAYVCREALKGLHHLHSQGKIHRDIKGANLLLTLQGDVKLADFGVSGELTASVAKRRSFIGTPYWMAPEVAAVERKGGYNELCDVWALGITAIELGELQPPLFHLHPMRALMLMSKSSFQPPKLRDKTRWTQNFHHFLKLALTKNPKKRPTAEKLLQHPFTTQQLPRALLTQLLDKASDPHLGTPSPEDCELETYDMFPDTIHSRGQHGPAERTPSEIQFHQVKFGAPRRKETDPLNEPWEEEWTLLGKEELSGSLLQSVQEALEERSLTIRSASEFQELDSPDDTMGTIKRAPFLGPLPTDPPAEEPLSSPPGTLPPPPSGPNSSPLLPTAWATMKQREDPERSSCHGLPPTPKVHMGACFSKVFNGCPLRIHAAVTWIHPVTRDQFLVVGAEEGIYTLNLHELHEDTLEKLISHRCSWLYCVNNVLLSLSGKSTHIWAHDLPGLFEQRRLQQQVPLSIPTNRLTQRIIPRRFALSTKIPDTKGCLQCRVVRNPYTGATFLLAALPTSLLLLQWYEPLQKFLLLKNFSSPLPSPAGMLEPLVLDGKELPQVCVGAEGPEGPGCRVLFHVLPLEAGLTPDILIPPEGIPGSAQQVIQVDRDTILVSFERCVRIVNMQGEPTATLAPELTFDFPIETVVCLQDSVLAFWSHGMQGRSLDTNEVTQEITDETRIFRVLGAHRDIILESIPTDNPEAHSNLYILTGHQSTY
Nature of the assay: Inhibition of MAP4K2 Lys2 labeling site in human A-375 cells at 5 uM by KiNativ Profiling analysis relative to control. The assay is classed as cell-based.

The target of assay [5] is Serine/threonine-protein kinase VRK2 (Homo sapiens) (UniProt Q86Y07). The assay is described as follows: Inhibition of VRK2 Lys2 labeling site in human Huh-7 cell lysate at 1 uM by KiNativ Profiling analysis relative to control. The class given is subcellular.
Chain of Serine/threonine-protein kinase VRK2 (Homo sapiens) (Q86Y07 whole entry): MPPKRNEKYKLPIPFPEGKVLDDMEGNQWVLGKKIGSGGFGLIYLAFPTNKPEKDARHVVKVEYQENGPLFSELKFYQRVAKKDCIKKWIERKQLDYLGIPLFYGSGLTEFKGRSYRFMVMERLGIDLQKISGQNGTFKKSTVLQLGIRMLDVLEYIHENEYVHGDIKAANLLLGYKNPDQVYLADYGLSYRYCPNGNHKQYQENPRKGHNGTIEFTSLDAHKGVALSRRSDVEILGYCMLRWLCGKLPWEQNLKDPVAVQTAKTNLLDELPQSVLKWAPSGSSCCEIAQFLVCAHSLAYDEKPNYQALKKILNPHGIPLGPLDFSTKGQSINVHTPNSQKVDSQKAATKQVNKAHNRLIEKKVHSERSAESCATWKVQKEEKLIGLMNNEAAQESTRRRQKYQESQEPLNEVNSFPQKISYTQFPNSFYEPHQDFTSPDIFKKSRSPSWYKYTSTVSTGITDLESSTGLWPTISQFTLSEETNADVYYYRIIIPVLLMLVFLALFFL
The target in assay [6] is 5'-AMP-activated protein kinase catalytic subunit alpha-1 (Homo sapiens) (UniProt Q13131). Nature of the assay: Inhibition of AMPKa1 Lys1 labeling site in human Huh-7 cells at 1 uM by KiNativ Profiling analysis relative to control. The class given is cell-based.
Chain of 5'-AMP-activated protein kinase catalytic subunit alpha-1 (Homo sapiens) (Q13131 whole entry, looked up): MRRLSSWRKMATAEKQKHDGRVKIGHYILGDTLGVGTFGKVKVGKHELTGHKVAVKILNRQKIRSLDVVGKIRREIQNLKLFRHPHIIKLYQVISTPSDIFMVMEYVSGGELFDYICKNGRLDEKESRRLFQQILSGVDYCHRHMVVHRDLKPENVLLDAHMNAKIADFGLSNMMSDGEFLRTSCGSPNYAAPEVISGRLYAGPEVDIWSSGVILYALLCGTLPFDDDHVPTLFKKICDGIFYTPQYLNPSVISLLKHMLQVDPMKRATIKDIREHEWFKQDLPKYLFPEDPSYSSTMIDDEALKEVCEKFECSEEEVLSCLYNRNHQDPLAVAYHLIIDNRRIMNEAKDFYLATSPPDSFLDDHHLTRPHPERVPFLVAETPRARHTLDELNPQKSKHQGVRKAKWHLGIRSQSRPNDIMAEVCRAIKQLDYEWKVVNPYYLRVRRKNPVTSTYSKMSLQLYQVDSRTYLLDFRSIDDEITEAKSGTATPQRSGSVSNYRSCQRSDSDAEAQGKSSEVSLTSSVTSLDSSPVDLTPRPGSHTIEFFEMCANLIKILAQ
Assay [7] deals with Serine/threonine-protein kinase WNK2 (Homo sapiens) (UniProt Q9Y3S1). Nature of the assay: Inhibition of Wnk2 ACT labeling site in human Huh-7 cell lysate at 1 uM by KiNativ Profiling analysis relative to control. The assay is classed as subcellular.
Chain of Serine/threonine-protein kinase WNK2 (Homo sapiens) (Q9Y3S1 whole entry): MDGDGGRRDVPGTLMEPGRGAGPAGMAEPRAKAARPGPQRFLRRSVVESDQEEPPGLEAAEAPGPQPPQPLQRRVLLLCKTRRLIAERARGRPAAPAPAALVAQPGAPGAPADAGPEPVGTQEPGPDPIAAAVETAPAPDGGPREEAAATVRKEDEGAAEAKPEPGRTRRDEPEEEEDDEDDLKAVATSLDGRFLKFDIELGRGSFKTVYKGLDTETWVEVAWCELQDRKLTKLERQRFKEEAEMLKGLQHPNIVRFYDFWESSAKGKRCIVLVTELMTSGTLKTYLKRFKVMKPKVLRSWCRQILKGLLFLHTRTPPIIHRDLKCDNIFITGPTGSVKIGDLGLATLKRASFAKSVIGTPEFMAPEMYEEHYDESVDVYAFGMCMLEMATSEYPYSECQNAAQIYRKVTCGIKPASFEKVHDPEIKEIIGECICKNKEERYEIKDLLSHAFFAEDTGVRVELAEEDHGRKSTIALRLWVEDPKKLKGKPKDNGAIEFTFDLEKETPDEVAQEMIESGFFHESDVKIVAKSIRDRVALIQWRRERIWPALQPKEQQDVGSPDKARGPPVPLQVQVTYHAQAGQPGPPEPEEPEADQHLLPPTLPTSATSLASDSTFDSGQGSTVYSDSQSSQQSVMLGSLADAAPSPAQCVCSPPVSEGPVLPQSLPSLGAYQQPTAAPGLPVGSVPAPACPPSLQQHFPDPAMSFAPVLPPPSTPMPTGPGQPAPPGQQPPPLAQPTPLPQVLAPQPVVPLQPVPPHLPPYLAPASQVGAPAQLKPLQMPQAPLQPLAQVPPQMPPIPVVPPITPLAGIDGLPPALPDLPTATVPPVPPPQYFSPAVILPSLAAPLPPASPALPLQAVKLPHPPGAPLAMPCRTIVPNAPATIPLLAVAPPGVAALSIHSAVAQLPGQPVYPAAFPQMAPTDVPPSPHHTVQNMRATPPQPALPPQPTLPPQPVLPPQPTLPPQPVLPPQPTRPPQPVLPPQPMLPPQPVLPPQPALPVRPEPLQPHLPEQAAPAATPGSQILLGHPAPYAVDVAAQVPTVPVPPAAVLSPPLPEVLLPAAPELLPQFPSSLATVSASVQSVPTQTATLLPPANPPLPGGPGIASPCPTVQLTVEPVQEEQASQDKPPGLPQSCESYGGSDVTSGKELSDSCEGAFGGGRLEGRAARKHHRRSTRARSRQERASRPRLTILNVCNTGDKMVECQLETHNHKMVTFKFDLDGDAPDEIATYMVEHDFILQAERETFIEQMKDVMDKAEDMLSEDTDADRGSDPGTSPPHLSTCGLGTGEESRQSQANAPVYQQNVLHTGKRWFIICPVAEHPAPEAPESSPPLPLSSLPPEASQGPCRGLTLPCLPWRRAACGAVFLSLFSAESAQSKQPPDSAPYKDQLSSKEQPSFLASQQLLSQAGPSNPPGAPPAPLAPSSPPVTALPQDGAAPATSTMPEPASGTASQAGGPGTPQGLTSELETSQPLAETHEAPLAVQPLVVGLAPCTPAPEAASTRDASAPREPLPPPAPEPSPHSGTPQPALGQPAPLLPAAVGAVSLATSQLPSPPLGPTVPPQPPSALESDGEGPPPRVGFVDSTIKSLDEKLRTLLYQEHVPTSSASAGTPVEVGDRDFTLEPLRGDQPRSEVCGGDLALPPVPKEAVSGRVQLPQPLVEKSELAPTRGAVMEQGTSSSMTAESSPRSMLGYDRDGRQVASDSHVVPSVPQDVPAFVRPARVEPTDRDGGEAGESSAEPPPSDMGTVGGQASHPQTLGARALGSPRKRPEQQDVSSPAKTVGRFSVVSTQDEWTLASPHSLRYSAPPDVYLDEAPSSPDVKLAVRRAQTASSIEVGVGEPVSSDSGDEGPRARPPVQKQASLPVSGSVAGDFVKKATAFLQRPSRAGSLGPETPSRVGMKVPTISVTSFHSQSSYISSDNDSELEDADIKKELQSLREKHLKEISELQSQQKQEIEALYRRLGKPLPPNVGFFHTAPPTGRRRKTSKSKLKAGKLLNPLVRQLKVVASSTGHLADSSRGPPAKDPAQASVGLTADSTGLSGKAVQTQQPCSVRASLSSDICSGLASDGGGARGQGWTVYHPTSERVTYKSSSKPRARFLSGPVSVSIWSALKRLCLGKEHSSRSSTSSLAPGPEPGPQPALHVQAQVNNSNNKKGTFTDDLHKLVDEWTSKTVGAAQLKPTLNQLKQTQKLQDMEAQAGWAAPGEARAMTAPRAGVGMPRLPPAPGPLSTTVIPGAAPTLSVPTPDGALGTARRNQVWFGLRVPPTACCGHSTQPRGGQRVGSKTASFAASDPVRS
Assay [8] addresses Calcium/calmodulin-dependent protein kinase type II subunit gamma (Homo sapiens) (UniProt Q13555). Nature of the assay: Inhibition of CaMK2g Lys1 labeling site harbouring TSTQEYAAKIINTKK in human Huh-7 cell lysate at 1 uM by KiNativ Profiling analysis relative to control. The assay is classed as subcellular.
In assay [9] the target is T3, Dual specificity mitogen-activated protein kinase kinase 6 (Homo sapiens) (UniProt P52564).
T3 sequence (whole entry): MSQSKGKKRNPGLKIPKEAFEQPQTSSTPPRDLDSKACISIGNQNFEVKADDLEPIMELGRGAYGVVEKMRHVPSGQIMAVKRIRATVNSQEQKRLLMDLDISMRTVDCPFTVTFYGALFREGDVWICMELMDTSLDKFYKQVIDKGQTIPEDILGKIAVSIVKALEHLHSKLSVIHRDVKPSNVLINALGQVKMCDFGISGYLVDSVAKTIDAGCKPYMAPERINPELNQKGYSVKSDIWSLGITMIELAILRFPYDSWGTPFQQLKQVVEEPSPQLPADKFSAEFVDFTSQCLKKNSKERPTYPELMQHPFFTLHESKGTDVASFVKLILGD
Nature of the assay: Inhibition of MAP2K6 Lys1 labeling site in human Huh-7 cell lysate at 1 uM by KiNativ Profiling analysis relative to control. The class given is subcellular.

Assay [10] has as its target Cyclin-dependent kinase 2 (Homo sapiens) (UniProt P24941). The assay is described as follows: Inhibition of CDK2 Lys1 labeling site in human Huh-7 cells at 1 uM by KiNativ Profiling analysis relative to control. The assay is classed as cell-based.
Assay [11] addresses Serine/threonine-protein kinase 38 (Homo sapiens) (UniProt Q15208). Nature of the assay: Inhibition of NDR1 ACT labeling site in human Huh-7 cell lysate at 1 uM by KiNativ Profiling analysis relative to control. The class given is subcellular.

Chain of Calcium/calmodulin-dependent protein kinase type II subunit gamma (Homo sapiens) (Q13555 whole entry): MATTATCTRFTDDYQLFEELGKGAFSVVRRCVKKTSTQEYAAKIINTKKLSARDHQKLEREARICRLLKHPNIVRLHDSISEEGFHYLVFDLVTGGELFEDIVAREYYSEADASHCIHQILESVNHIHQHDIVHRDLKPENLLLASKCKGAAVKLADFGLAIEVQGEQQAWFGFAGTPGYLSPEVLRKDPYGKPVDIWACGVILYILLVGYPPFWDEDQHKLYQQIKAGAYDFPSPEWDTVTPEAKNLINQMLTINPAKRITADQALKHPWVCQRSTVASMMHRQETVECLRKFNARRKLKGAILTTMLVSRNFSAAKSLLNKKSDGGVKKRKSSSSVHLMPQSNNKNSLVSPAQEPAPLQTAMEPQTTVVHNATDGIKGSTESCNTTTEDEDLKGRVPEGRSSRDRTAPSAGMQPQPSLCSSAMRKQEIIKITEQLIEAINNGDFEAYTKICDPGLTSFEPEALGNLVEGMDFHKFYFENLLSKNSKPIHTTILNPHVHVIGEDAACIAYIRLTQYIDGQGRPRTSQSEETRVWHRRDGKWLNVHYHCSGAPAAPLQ
Chain of Serine/threonine-protein kinase 38 (Homo sapiens) (Q15208 2-465 limits assumed): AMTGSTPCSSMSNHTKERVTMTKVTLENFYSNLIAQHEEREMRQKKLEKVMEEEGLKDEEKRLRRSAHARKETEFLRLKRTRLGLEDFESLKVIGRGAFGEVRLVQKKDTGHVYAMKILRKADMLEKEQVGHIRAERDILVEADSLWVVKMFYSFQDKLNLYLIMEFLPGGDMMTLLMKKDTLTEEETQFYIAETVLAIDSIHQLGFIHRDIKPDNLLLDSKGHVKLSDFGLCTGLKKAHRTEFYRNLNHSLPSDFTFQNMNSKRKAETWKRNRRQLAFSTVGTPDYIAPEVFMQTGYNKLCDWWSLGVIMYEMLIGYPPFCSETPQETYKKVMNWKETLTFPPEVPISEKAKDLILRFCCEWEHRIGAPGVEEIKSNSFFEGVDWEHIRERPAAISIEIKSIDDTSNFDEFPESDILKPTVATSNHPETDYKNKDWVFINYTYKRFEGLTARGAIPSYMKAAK

For `CCN1CCN(Cc2ccc(NC(=O)c3ccc(C)c(/C=C/c4cnc5[nH]ccc5c4OC)c3)cc2C(F)(F)F)CC1`, the inhibition in assay [1] is 100%.

Regarding `CCN1CCN(Cc2ccc(NC(=O)c3ccc(C)c(Oc4ccnc5[nH]ccc45)c3)cc2C(F)(F)F)CC1`, the inhibition is 15.5% in [2], -3% in [3] and 94% in assay [4].

In the case of `CNc1cc(Oc2cc(C(=O)Nc3cc(N4CCN(C)CC4)cc(C(F)(F)F)c3)ccc2C)ncn1`, the inhibition is -0.9% in assay [5]; -7.5% in [6]; -6.9% in assay [7]; 8.6% in [8]; 5.3% in assay [9]; -5.7% in assay [10]. For the same compound, the inhibition in assay [11] came to 4.2%.
